From publication PMC9489211, “Regulation of pulmonary surfactant by the adhesion GPCR GPR116/ADGRF5 requires a tethered agonist-mediated activation mechanism” (eLife, 2022)
Where a SMILES comes first, the peptide text is derived from it. Where no end group is shown, it is not given here. [ ]: non-standard residue; d: D form. Nle = CCCC[C@H](N)C(=O)O

Columns and labels:
[1] = molecular target: T1, full-length hGPR116 (HEK293 clone A6) (Homo sapiens, UniProt Q8IZF2); assay: Calcium transient assay, full-length hGPR116 stably expressed in HEK293 (clone A6); format: cell-based; settings: calcium transients, hFL clone A6, Figure 3-figure supplement 2 / Figure 7A
T1 construct: expressed in transfected cells
T1 sequence (Q8IZF2 22-1346): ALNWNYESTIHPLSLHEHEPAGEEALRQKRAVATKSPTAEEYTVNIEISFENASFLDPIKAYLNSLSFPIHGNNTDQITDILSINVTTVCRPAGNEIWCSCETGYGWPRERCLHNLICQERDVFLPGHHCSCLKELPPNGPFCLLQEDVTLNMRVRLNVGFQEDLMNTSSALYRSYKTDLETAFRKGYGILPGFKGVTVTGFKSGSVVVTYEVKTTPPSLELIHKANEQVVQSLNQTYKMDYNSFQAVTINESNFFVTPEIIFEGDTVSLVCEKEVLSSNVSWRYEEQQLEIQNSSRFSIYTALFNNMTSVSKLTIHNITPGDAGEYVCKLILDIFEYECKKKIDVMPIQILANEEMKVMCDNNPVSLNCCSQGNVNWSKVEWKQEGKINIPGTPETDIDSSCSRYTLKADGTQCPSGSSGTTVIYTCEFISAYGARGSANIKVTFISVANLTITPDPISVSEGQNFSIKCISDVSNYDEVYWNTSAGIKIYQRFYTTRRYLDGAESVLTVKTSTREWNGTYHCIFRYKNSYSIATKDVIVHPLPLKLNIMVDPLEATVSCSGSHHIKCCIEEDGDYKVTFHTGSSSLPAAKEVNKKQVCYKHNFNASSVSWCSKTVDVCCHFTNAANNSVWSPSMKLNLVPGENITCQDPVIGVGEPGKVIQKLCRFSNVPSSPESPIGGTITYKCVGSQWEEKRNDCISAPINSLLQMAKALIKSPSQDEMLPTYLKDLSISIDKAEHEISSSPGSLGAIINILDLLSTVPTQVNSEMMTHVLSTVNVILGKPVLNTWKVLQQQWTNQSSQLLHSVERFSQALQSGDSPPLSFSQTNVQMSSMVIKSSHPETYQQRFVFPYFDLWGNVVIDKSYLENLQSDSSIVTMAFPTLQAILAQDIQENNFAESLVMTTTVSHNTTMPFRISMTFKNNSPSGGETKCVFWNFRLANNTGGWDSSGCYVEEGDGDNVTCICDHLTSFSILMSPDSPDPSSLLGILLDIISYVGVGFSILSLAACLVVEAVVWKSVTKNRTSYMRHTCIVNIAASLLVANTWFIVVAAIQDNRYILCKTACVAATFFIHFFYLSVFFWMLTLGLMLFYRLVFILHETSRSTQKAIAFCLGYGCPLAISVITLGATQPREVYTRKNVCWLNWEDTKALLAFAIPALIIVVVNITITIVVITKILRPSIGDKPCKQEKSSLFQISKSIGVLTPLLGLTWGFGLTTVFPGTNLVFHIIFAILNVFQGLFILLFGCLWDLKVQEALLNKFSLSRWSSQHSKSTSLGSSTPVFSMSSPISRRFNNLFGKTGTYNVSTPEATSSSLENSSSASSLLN
Experimental: (§1) For some constructs, stable populations were generated by treating the cells with G418. After complete selection of resistant cells, these were used in assays. Stable HEK293 clones for full-length hGPR116 (clone A6) and mGPR116 (clone 3C) were described earlier ([Brown et al., 2017]).
(§2) HEK293 cells were seeded in 384-well plates (Greiner, #781946) at 30,000 cells/well. Medium was removed the following day and cells were loaded for 2 hr at 37°C, 5% CO2 with 20 µl Calcium 6 loading buffer (Molecular Devices, Cat# R8191): 1× HBSS (Gibco, Cat# 14065.049) containing 20 mM HEPES (Gibco, Cat#15630) and 2.5 mM probenecid (Sigma, Cat# P8761). Plates were then transferred to a FDSS7000 fluorescence plate reader (HAMAMATSU, Japan) and Ca^2+ responses were measured in real time using a CCD camera with excitation 480 nm/emission 540 nm. Prior to stimulation, baseline measurements were recorded over 5 s (Fmin). For stimulation, 20 µl of test compounds prepared 2× in HBSS containing 20 mM HEPES were dispensed. Fluorescence was read over 1–1.5 min. Maximum fluorescence (Fmax) was determined and normalized to baseline. Data are reported as ∆F/F = (Fmax – Fmin)/Fmin. Adequate response of the endogenous M3R was verified for each transfection, using carbachol at 100 µM and following the same procedure as for the peptide activation.
(§3) Concentration response curves were analyzed using GraphPad Prism 9.2.0. Potency was determined using a nonlinear regression model with variable slope, and statistical significance was determined using a one-way ANOVA followed by Dunnett’s multiple comparison test or a TTEST for comparison of two data sets (*p<0.05, **p<0.01, ***p<0.001, ****p<0.0001, ns, not significant).

hCTFbax G1011K = molecular target: T2, hCTFbax G1011K (Homo sapiens, UniProt Q8IZF2, G1009K); assay: Calcium transient assay, hCTFbax G1011K; format: cell-based; settings: calcium transients, Figure 7C
T2 construct: tethered peptide (993 - 1008); expressed in transfected cells
T2 sequence (Q8IZF2 997-1346 G1009K): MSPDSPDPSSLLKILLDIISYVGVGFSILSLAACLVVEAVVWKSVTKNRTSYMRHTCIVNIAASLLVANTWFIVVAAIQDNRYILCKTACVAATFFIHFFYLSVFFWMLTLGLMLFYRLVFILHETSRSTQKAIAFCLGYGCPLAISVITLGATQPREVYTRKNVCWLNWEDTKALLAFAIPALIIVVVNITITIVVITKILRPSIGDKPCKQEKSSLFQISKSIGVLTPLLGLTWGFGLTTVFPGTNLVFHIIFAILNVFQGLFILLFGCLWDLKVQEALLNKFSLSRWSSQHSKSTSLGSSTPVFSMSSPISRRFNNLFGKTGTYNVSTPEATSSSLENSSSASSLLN
Experimental: The hCTFbax construct was generated independently of the mCTFbax, using a strategy (Nt deletion) based on emerging knowledge and appropriate for the planned studies, although no difference in functionality is expected between the two approaches. The hCTFbax mBS chimera was derived from this construct by gene synthesis. Other mutants of the human GPR116 CTF or full-length constructs were generated by site-directed mutagenesis using PCR-based techniques.
HEK293 cells were seeded in 384-well plates (Greiner, #781946) at 30,000 cells/well. […] Plates were then transferred to a FDSS7000 fluorescence plate reader (HAMAMATSU, Japan) and Ca^2+ responses were measured in real time using a CCD camera with excitation 480 nm/emission 540 nm. Prior to stimulation, baseline measurements were recorded over 5 s (Fmin). […] Fluorescence was read over 1–1.5 min. Maximum fluorescence (Fmax) was determined and normalized to baseline. […]
as §3

[2] = molecular target: T3, full-length mGPR116 (HEK293 clone 3C) (Mus musculus, UniProt G5E8Q8); assay: Calcium transient assay, full-length mGPR116 stably expressed in HEK293 (clone 3C); format: cell-based; settings: calcium transient assay, HEK293 clone 3C, Fig 3F
T3 construct: expressed in transfected cells
T3 sequence (G5E8Q8 22-1348): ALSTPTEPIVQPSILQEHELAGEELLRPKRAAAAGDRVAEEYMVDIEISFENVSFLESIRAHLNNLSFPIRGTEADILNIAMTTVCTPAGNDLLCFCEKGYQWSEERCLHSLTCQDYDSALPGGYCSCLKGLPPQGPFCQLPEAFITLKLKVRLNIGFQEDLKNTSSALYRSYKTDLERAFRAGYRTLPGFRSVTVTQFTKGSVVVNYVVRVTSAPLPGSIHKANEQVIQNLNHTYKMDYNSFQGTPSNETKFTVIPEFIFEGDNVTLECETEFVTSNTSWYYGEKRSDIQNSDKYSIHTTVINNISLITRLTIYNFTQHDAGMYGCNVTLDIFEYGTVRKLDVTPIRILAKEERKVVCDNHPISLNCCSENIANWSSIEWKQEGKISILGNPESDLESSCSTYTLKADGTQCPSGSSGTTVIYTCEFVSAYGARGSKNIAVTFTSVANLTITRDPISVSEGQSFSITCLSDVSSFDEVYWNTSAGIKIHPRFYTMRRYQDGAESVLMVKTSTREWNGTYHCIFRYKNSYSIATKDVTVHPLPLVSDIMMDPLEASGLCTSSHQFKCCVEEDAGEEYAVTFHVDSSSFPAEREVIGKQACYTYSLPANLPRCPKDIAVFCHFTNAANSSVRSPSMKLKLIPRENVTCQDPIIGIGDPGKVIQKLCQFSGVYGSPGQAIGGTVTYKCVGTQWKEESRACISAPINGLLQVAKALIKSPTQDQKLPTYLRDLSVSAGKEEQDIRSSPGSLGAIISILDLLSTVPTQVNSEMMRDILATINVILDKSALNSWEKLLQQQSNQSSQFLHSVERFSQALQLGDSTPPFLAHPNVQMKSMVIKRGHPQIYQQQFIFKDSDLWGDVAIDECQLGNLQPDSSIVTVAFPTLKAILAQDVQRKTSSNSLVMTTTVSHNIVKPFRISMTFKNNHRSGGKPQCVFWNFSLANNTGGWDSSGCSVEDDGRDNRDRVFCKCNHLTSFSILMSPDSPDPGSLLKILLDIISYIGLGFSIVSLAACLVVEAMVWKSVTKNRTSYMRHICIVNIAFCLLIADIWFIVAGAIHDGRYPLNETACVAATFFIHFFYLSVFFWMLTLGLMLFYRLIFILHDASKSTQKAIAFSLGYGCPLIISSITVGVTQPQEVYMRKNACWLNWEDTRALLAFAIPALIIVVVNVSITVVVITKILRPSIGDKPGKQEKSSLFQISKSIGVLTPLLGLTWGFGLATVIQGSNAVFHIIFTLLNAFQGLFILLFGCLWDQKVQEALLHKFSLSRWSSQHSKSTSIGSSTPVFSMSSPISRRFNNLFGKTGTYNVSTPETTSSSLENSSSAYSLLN
Experimental: as §1, §2, §3

[3] = tested on: mCTFbax Y1158A, R1160A, W1165A, L1166A, T1240A; assay: Calcium transient assay, alanine scan of ECLs in mCTFbax; format: cell-based, mouse; settings: transiently transfected HEK293, Figure 4B
Experimental: Human and mouse GPR116 full-length constructs (hFL and mFL, respectively) have been described earlier, as well as the mouse CTF constructs (mCTF) with N-terminal mCherry or FLAG ([Brown et al., 2017]). […] Mutants of these constructs have been generated by site-directed mutagenesis using PCR-based techniques.
as §2

[4] = tested on: mouse GPR116 CTF (mCTF) single alanine mutants; assay: IP1 accumulation, mCTF single alanine mutants of the tethered agonist stimulated with exogenous GAP; format: cell-based; settings: transiently transfected HEK293, Figure 3E
Experimental: HEK293 cells were seeded in 12-well plates at a density of 1.5 × 10^5 cells per well and transiently transfected with plasmids expressing wild-type, wild-type mGPR116-FLAG, CTF-FLAG, or alanine mutants of CTF-FLAG. Then, 24 hr post transfection, media were removed and replaced with serum-free Modified Eagles Medium (MEM; Mediatech) containing 1 µCi/ml of 3H-myo-inositol (PerkinElmer Life Sciences). Also, 48 hr […], media were removed and replaced with serum-free media supplemented with 20 mM LiCl for 3 hr. For samples to be stimulated with GAPs, the peptides were added at the appropriate concentration when the media were replaced with that supplemented with LiCl. […] Columns were washed twice with distilled H2O, total inositol phosphates (IP) were eluted with 4.0 ml of 0.1 M formic acid and 1 M ammonium formate, and eluates containing accumulated inositol phosphates were counted in a liquid scintillation counter. Then, 50 μl of neutralized supernatant was counted in a liquid scintillation counter to measure total incorporated 3H-myo-inositol. Data are expressed as accumulated inositol phosphate over total incorporated 3H-myo-inositol. […]
IP1 accumulation was measured using the manufacturer’s instructions (IP-One, Cisbio 62IPAPEC). […] Plates were read at 665 and 620 nm on an EnVision Xcite Multilabel reader (PerkinElmer, # 2104-0020). […]

activation of the human full-length receptor (in words) [1] | response of hCTFbax G1011K (in words) (hCTFbax G1011K) | Compound | EC50 (uM) n=1 ([2]; independent experiment n=1 (mean of quadruplicate)) [µM] | EC50 (uM) n=2 ([2]; independent experiment n=2 (mean of quadruplicate)) [µM] | EC50 (uM) n=3 ([2]; independent experiment n=3 (mean of quadruplicate)) [µM] | activation of mCTFbax ECL alanine mutants (in words) [3] | activation of mCTF single alanine mutants, IP1 accumulation (in words) [4]
little to no effect | did not robustly respond | CCCC[C@H](NC(=O)[C@H](CC(C)C)NC(=O)[C@@H](NC(=O)[C@H](CO)NC(=O)[C@H](Cc1ccccc1)NC(=O)[C@H](CO)NC(=O)[C@@H]1CCCN1)[C@@H](C)CC)C(=O)N[C@@H](CO)C(=O)N1CCC[C@H]1C(=O)N[C@@H](CC(=O)O)C(=O)O [GAP10-Pro1] (H-PSFSIL[Nle]SPD-OH; N-terminus and C-terminus assumed) |  |  |  |  | 
 |  | TSFSILMSPDSPDP [GAP14] | 29.9 | 26.3 | 46.4 | unresponsive to GAP14-mediated activation | strongly activated the mutant receptors
